In patent US20200263231A1, “Fluorogenic dyes for high sensitivity DNA detection” (LIFE TECHNOLOGIES CORPORATION, priority 2016, published 2020):

Assays:
[1] = UV/VIS absorption spectra; assay type: physicochemical; conditions: 10 μM compound in 50 mM potassium phosphate buffer (pH 7.0)
Experimental: The UV/VIS absorption spectra were obtained with 10 μM compound solution in 50 mM potassium phosphate buffer (pH 7.0) in a final volume of 3 mL. Measurements were carried out using a Lambda 245 spectrophotometer from Perkin Elmer.

calf thymus DNA = assay: Fluorescence emission and enhancement of compounds bound to calf thymus DNA; assay type: binding; conditions: 0.8 μM compound with 500 ng/ml calf thymus DNA in TE buffer; for Emission Max: excited at 488 nm; for Fluorescence Enhancement: emission area 500-715 nm compared to compound 1, defined as 1000-fold
Experimental: Compounds 1-65 were prepared and their fluorescence absorption and emission characteristics were measured. Intrinsic fluorescence of the compounds only (without DNA) was negligible. Emission spectra for the compounds bound to dsDNA were obtained by incubating 0.8 μM compound with 500 ng/ml calf thymus DNA in TE buffer (10 mM Tris-HCl, pH 7.5, 1 mM EDTA) in a final volume of 3 ml. Measurements were made using PerkinElmer LS 55 (F-11) Fluorescence spectrometer. Samples were excited at 488 nm and fluorescence emission was measured with emission slit widths of 2.5 nm. Absorption maxima were determined according to standard techniques.
Fluorescence enhancement measurements of the compounds were obtained by incubating 0.8 μM compound with 500 ng/ml calf thymus DNA with compounds at a final concentration of 0.8 μM in TE buffer. Compound 1 was used as an internal standard to control for variability (e.g., in excitation light intensity). The area-under-curve of fluorescence emission spectra from 500 nm to 715 nm was calculated, and compared to that of compound 1, which was defined as having 1000-fold fluorescence enhancement relative to fluorescence of the compound alone.

dsDNA versus ssDNA = assay: In vitro selectivity dsDNA versus ssDNA; assay type: binding
Experimental: Six compounds (2, 34, 35, 41, 42, and 48) were characterized in in vitro selectivity experiments for double-stranded DNA (dsDNA) versus single-stranded DNA (ssDNA). These compounds were compared against comparative compounds R^1 and R^2.
For each individual compound, the dsDNA and ssDNA fluorescence emission at 10 ng/μL was compared to evaluate in vitro selectivity for dsDNA/ssDNA, as shown in FIG. 4.
Further in vitro selectivity experiments for double-stranded DNA (dsDNA) versus single-stranded DNA (ssDNA) were performed using the methods outlined in Example 3 to compare compounds 2, 34, 41, 42, and 48 to comparative compounds R1 and R2.
For each individual compound, the dsDNA and ssDNA fluorescence emission at 10 ng/μL was calculated to estimate in vitro selectivity, as shown in FIG. 7.

ssDNA = assay: Microplate fluorescence when bound to ssDNA; assay type: binding; conditions: for Ratio to R1, fluorescent emission with ssDNA / fluorescent emission with ssDNA: 500 ng/mL ssDNA; for ssDNA emission: text says 10 ng/μL
Experimental: The compounds from FIG. 1 were also characterized with respect to their fluorescence enhancement when bound to ssDNA. The compounds from FIG. 1, R1 and R2 were tested in triplicate. 190 μL of 1 μM compound in 1× Tris-EDTA pH7.5, 0.01% CHAPS was added to 10 μL of 4 different concentrations of ssDNA in wells of 96 well Costar black, clear bottom microplates. Plates were read on a SpectraFluor multifunction microplate reader (Tecan) at 491 nm excitation and 520 nm emission. Fluorescence data with ssDNA are shown in FIG. 3 for the different tested compounds.
Next, the compounds were compared for their fluorescence enhancement when bound to ssDNA as described in Example 1. Fluorescence data with ssDNA are shown in FIG. 6 for the different tested compounds.

dsDNA = assay: Microplate fluorescence when bound to dsDNA; assay type: binding; conditions: 500 ng/mL dsDNA
Experimental: Compounds were tested in triplicate for fluorescence enhancement when bound to dsDNA. 190 μL of 1 μM compound in 1× Tris-EDTA, pH 7.5, 0.01% CHAPS was added to 10 μL of 4 different concentrations of dsDNA (0, 25 ng/mL, 200 ng/mL, and 500 ng/mL) in wells of 96 well Costar black, clear bottom microplates. Plates were read on a SpectraFluor multifunction microplate reader (Tecan) at 491 nm excitation and 520 nm emission.
Compounds were tested for fluorescence enhancement when bound to dsDNA as described in Example 3. Fluorescence data with dsDNA are shown in FIG. 5 for the different tested compounds.

[2] = Example 3, Table 3, 1 μM compound, 491 nm excitation, 520 nm emission
[3] = Example 3, Table 4, FIG. 4 says 500 ng/mL
[4] = Example 4, Table 7, FIG. 7 says 500 ng/mL
[5] = Example 3, Table 2, 1 μM compound, 491 nm excitation, 520 nm emission

Row | Absorbance Max [1] [nm] | Emission Max (calf thymus DNA) [nm] | Structure (SMILES) | Fluorescence Enhancement (calf thymus DNA) [fold] | ratio of dsDNA emission versus ssDNA emission (dsDNA versus ssDNA; Example 3, Table 4) | ratio of dsDNA emission versus ssDNA emission (dsDNA versus ssDNA; Example 4, Table 7) | Ratio to R1, fluorescent emission with ssDNA (ssDNA; Example 3, Table 3) | fluorescent emission with ssDNA (ssDNA; [2]) | ssDNA emission (ssDNA; [3]) | fluorescent emission with ssDNA (ssDNA; Example 4, Table 6) | ssDNA emission (ssDNA; [4]) | Ratio to R1, fluorescent emission with dsDNA (dsDNA; Example 3, Table 2) | fluorescent emission with dsDNA (dsDNA; [5]) | Ratio to R1, fluorescent emission with dsDNA (dsDNA; Example 4, Table 5) | fluorescent emission with dsDNA (dsDNA; Example 4, Table 5)
1 | 501 | 523 | CCCN(CCC[N+](C)(C)C)C1=CC(=Cc2sc3ccccc3[n+]2C)c2ccccc2N1c1ccccc1.[Cl-].[I-] [Compound 2] | 964 | 5.4 | 5.9 | 1.6 | 1773 | 1773 | 1767 | 1767 | 1.74 | 9494 | 1.8 | 10339
2 | 488 | 517 | CCCCN(CCCN(C)C)C1=CC(=Cc2sc3ccccc3[n+]2C)c2ccc(OC)cc2N1c1ccccc1.[I-] [Compound 34] | 1071 | 4.1 | 4.8 | 2.4 | 2578 | 2578 | 2603 | 2603 | 1.92 | 10452 | 2.1 | 12434
3 | 493 | 517 | CCCN(CCCN(C)C)C1=CC(=Cc2sc3ccccc3[n+]2C)c2ccc(OC)cc2N1c1ccccc1.[I-] [Compound 41] | 1020 | 3.5 | 4.1 | 2.7 | 2878 | 2878 | 2814 | 2814 | 1.83 | 9936 | 1.9 | 11424
4 | 494 | 519 | CCCN(CCC[N+](C)(C)C)C1=CC(=Cc2sc3ccccc3[n+]2C)c2ccc(OC)cc2N1c1ccccc1.[I-].[I-] [Compound 42] | 1070 | 3.6 | 4.4 | 2.8 | 3017 | 3017 | 3078 | 3078 | 2.00 | 10860 | 2.3 | 13580
5 |  |  | CN(C)CCCN(CCCN(C)C)C1=CC(=Cc2sc3ccccc3[n+]2C)c2ccccc2N1c1ccccc1.[I-] [Compound R1, reference compound] |  | 5.0 | 5.5 | 1.0 | 1081 | 1081 | 1080 | 1080 | 1.00 | 5441 | 1.0 | 5887
6 |  |  | COc1ccc2c(c1)N(c1ccccc1)C(N(CCC[N+](C)(C)C)CCC[N+](C)(C)C)=CC2=Cc1sc2ccccc2[n+]1C.I [Compound R2, reference compound] |  | 5.2 | 6.6 | 1.5 | 1669 | 1669 | 1512 | 1512 | 1.59 | 8627 | 1.7 | 9941

Row | Structure (SMILES) | Absorbance Max [1] [nm] | Emission Max (calf thymus DNA) [nm] | Fluorescence Enhancement (calf thymus DNA) [fold] | ratio of dsDNA emission versus ssDNA emission (dsDNA versus ssDNA; Example 3, Table 4) | ratio of dsDNA emission versus ssDNA emission (dsDNA versus ssDNA; Example 4, Table 7) | Ratio to R1, fluorescent emission with ssDNA (ssDNA; Example 3, Table 3) | fluorescent emission with ssDNA (ssDNA; [2]) | ssDNA emission (ssDNA; [3]) | fluorescent emission with ssDNA (ssDNA; Example 4, Table 6) | ssDNA emission (ssDNA; [4]) | Ratio to R1, fluorescent emission with dsDNA (dsDNA; Example 3, Table 2) | fluorescent emission with dsDNA (dsDNA; [5]) | Ratio to R1, fluorescent emission with dsDNA (dsDNA; Example 4, Table 5) | fluorescent emission with dsDNA (dsDNA; Example 4, Table 5)
7 | CCCCN(CCC[N+](C)(C)C)C1=CC(=Cc2sc3ccccc3[n+]2C)c2ccc(OC)cc2N1c1ccccc1.[I-].[I-] [Compound 35] | 489 | 518 | 1069 | 4.4 |  | 2.3 | 2515 | 2515 |  |  | 2.05 | 11136 |  | 
8 | CCN(CCCN(C)C)C1=CC(=Cc2sc3ccccc3[n+]2C)c2ccc(OC)cc2N1c1ccccc1.[I-] [Compound 48] | 489 | 520 | 1016 | 3.4 | 4.6 | 2.5 | 2739 | 2739 | 2477 | 2477 | 1.72 | 9350 | 1.9 | 11400
